The compounds below were run against T1, hCRTH2 (Homo sapiens, UniProt Q9Y5Y4) (assay: Radioligand binding assay ([3H]PGD2 competition, HEK-hCRTH2 membranes)). Details: [3H]PGD2 binding, rated A-E (Table A).
T1 construct: expressed in transfected cells; host or cells: HEK (human embryonic kidney) cells expressing hCRTH2; membrane preparation
T1 sequence (Q9Y5Y4 1-395): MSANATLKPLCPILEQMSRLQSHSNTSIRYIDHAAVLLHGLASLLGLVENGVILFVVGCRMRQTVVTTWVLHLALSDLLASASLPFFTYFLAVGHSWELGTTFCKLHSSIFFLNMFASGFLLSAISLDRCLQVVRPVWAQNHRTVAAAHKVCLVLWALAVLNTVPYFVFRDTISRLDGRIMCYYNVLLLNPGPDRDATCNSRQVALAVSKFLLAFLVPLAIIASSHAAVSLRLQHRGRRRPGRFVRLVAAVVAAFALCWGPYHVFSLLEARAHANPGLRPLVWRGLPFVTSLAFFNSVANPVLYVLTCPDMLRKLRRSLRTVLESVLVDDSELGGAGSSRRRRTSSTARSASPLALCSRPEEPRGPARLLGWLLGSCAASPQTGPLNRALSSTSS
How it was run: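 Membranes (8-20 μg protein) from HEK-hCRTH2 cells were incubated 60 min at room temperature with 3.0 nM [3H]PGD2 in 50 mM Tris-HCl pH 7.4, 1 mM EDTA, 2 mM MnCl2, 1% DMSO. Non-specific binding defined with 10 μM PGD2. Bound radioactivity counted after filtration.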

| Ki [nM] | Structure (SMILES) |
| --- | --- |
| 20.1 to 200 | NC(=O)c1ccc2nc(-c3ccccc3)c(CCCCC(=O)O)nc2c1 [compound 144, 5-(7-carbamoyl-3-phenylquinoxalin-2-yl)pentanoic acid] |
| 2.1 to 20 | O=C(O)CCCCc1nc2cc(C(=O)N3CCC(n4ccnc4)CC3)ccc2nc1-c1ccccc1 [compound 145, 5-(7-(4-(1H-imidazol-1-yl)piperidine-l-carbonyl)-3-phenylquinoxalin-2-yl)pentanoic acid] |
| 20.1 to 200 | C[C@H](NC(=O)c1ccc2nc(-c3ccc(C(F)(F)F)cc3)c(CCCCC(=O)O)nc2c1)c1ccccn1 [compound 146, 7-[[[1(S)-(2-pyridinyl)ethyl]amino]carbonyl]-3-[4-(trifluoromethyl)phenyl]-2-quinoxalinepentanoic acid] |
| 2.1 to 20 | C[C@@H](NC(=O)c1ccc2nc(-c3ccc(C(F)(F)F)cc3)c(CCCCC(=O)O)nc2c1)c1ccccn1 [compound 147, 7-[[[1(R)-(2-pyridinyl)ethyl]amino]carbonyl]-3-[4-(trifluoromethyl)phenyl]-2-quinoxalinepentanoic acid] |
| 0.1 to 2 | O=C(O)CCCCc1nc2cc(C(=O)N3CCC(c4ccccc4)CC3)ccc2nc1-c1ccc(C(F)(F)F)cc1 [compound 148, 7-[(4-phenyl-1-piperidinyl)carbonyl]-3-[4-(trifluoromethyl)phenyl]-2-quinoxalinepentanoic acid] |
| 2.1 to 20 | O=C(O)CCCCc1nc2cc(C(=O)N[C@@H](c3ccccc3)C(F)(F)F)ccc2nc1-c1ccc(C(F)(F)F)cc1 [compound 149, 3-[4-(trifluoromethyl)phenyl]-7-[[(2,2,2-trifluoro-1(S)-phenylethyl)amino]carbonyl]-2-quinoxalinepentanoic acid] |
| 0.1 to 2 | O=C(O)CCCCc1nc2cc(C(=O)NC3Cc4ccccc4C3)ccc2nc1-c1ccc(C(F)(F)F)cc1 [compound 150, 7-[[(2,3-dihydro-1H-inden-2-yl)amino]carbonyl]-3-[4-(trifluoromethyl)phenyl]-2-quinoxalinepentanoic acid] |
| 0.1 to 2 | O=C(O)CCCCc1nc2cc(C(=O)NCc3cccc(Cl)c3)ccc2nc1-c1ccc(C(F)(F)F)cc1 [compound 151, 7-[[[(3-chlorophenyl)methyl]amino]carbonly]-3-[4-(trifluoromethyl)phenyl]-2-quinoxalinepentanoic acid] |
| 0.1 to 2 | O=C(O)CCCCc1nc2cc(C(=O)N3CC(c4ccccc4)C3)ccc2nc1-c1ccc(C(F)(F)F)cc1 [compound 154, 7-[(3-phenyl-1-azetidinyl)carbonyl]-3-[4-(trifluoromethyl)phenyl]-2-quinoxalinepentanoic acid] |
| 2.1 to 20 | O=C(O)CCCCc1nc2cc(C(=O)NCc3ccc(Cl)cc3)ccc2nc1-c1ccc(C(F)(F)F)cc1 [compound 155, 7-[[[(4-chlorophenyl)methyl]amino]carbonyl]-3-[4-(trifluoromethyl)phenyl]-2-quinoxalinepentanoic acid] |
| 2.1 to 20 | O=C(O)CCCCc1nc2cc(C(=O)NCc3ccc(OC(F)(F)F)cc3)ccc2nc1-c1ccc(C(F)(F)F)cc1 [compound 156, 7-[[[[4-(trifluoromethoxy)phenyl]methyl]amino]carbonyl]-3-[4-(trifluoromethyl)phenyl]-2-quinoxalinepentanoic acid] |
| 2.1 to 20 | N#Cc1ccc(CNC(=O)c2ccc3nc(-c4ccc(C(F)(F)F)cc4)c(CCCCC(=O)O)nc3c2)cc1 [compound 157, 7-[[[(4-cyanophenyl)methyl]amino]carbonyl]-3-[4-(trifluoromethyl)phenyl]-2-quinoxalinepentanoic acid] |
| 201 to 700 | O=C(O)Cc1ccc(CCc2nc3cc(C(=O)N4CCC(c5ccccc5)CC4)ccc3nc2-c2ccc(Cl)cc2)cc1 [compound 158, 4-[2-[3-(4-chlorophenyl)-7-[(4-phenyl-1-piperidinyl)carbonyl]-2-quinoxalinyl]ethyl] benzeneacetic acid] |
| 201 to 700 | O=C(O)Cc1ccc(CCc2nc3cc(C(=O)NCc4cccc(Cl)c4)ccc3nc2-c2ccc(Cl)cc2)cc1 [compound 159, 4-[2-[3-(4-chlorophenyl)-7-[[[(3-chlorophenyl)methyl]amino]carbonyl]-2-quinoxalinyl]ethyl] benzeneacetic acid] |
| 2.1 to 20 | CC(CCCc1nc2cc(C(=O)NCc3cccc(F)c3)ccc2nc1-c1ccc(Cl)cc1)C(=O)O (stereo not drawn) [compound 160, 3-(4-chlorophenyl)-7-[[[(3-fluorophenyl)methyl]amino]carbonyl]-alpha-methyl-2-quinoxalinepentanoic acid] |
| 2.1 to 20 | CC(CCCc1nc2cc(C(=O)NCc3ccc(F)cc3)ccc2nc1-c1ccc(Cl)cc1)C(=O)O (stereo not drawn) [compound 161, 3-(4-chlorophenyl)-7-[[[(4-fluorophenyl)methyl]amino]carbonyl]-alpha-methyl-2-quinoxalinepentanoic acid] |
| 0.1 to 2 | CC(CCCc1nc2cc(C(=O)N3CCC(c4ccccc4)CC3)ccc2nc1-c1ccc(Cl)cc1)C(=O)O (stereo not drawn) [compound 162, 3-(4-chlorophenyl)-alpha-methyl-7-[(4-phenyl-1-piperidinyl)carbonyl]-2-quinoxalinepentanoic acid] |
| 2.1 to 20 | CC(CCCc1nc2cc(C(=O)N[C@@H](c3ccccc3)C(F)(F)F)ccc2nc1-c1ccc(Cl)cc1)C(=O)O (stereo partly drawn) [compound 163, 3-(4-chlorophenyl)-alpha-methyl-7-[[(2,2,2-trifluoro-1(S)-phenylethyl)amino]carbonyl]-2-2-quinoxalinepentanoic acid] |
| 2.1 to 20 | CC(CCCc1nc2cc(C(=O)NCc3ccc(C#N)cc3)ccc2nc1-c1ccc(Cl)cc1)C(=O)O (stereo not drawn) [compound 164, 3-(4-chlorophenyl)-7-[[[(4-cyanophenyl)methyl]amino]carbonyl]-alpha-methyl-2-quinoxalinepentanoic acid] |
| 2.1 to 20 | CC(CCCc1nc2cc(C(=O)N3CC(c4ccccc4)C3)ccc2nc1-c1ccc(Cl)cc1)C(=O)O (stereo not drawn) [compound 165, 3-(4-chlorophenyl)-alpha-methyl-7-[(3-phenyl-1-azetidinyl)carbonyl]-2-quinoxalinepentanoic acid] |
| 2.1 to 20 | CC(CCCc1nc2cc(C(=O)N[C@H](C)c3ccc(F)cc3)ccc2nc1-c1ccc(Cl)cc1)C(=O)O (stereo partly drawn) [compound 166, 3(4-chlorophenyl)-7-[[[1(R)-(4-fluorophenyl)ethyl]amino]carbonyl]-alpha-methyl-2-quinoxalinepentanoic acid] |
| 2.1 to 20 | CC(CCCc1nc2cc(C(=O)N[C@@H](C)c3ccc(F)cc3)ccc2nc1-c1ccc(Cl)cc1)C(=O)O (stereo partly drawn) [compound 167, 3-(4-chlorophenyl)-7-[[[1(S)-(4-fluorophenyl)ethyl]amino]carbonyl]-alpha-methyl-2-quinoxalinepentanoic acid] |
| 2.1 to 20 | CC(CCCc1nc2cc(C(=O)NC3Cc4ccccc4C3)ccc2nc1-c1ccc(Cl)cc1)C(=O)O (stereo not drawn) [compound 168, 3-(4-chlorophenyl)-7-[[(2,3-dihydro-1H-inden-2-yl)amino]carbonyl]-alpha-methyl-2-quinoxalinepentanoic acid] |
| 2.1 to 20 | CC(CCCc1nc2cc(C(=O)N3CCN(c4ccccc4)CC3)ccc2nc1-c1ccc(Cl)cc1)C(=O)O (stereo not drawn) [compound 169, 3-(4-chlorophenyl)-alpha-methyl-7-[(4-phenyl-1-piperazinyl)carbonyl]-2-quinoxalinepentanoic acid] |

Same assay, conditions: [3H]PGD2 binding, values in text

| Ki [nM] | Structure (SMILES) |
| --- | --- |
| 118 | NC(=O)c1ccc2nc(-c3ccccc3)c(CCCCC(=O)O)nc2c1 [compound 144, 5-(7-carbamoyl-3-phenylquinoxalin-2-yl)pentanoic acid] |
| 132 | C[C@H](NC(=O)c1ccc2nc(-c3ccc(C(F)(F)F)cc3)c(CCCCC(=O)O)nc2c1)c1ccccn1 [compound 146, 7-[[[1(S)-(2-pyridinyl)ethyl]amino]carbonyl]-3-[4-(trifluoromethyl)phenyl]-2-quinoxalinepentanoic acid] |
| 564 | O=C(O)Cc1ccc(CCc2nc3cc(C(=O)NCc4cccc(Cl)c4)ccc3nc2-c2ccc(Cl)cc2)cc1 [compound 159, 4-[2-[3-(4-chlorophenyl)-7-[[[(3-chlorophenyl)methyl]amino]carbonyl]-2-quinoxalinyl]ethyl] benzeneacetic acid] |

From patent US9469615B2, “Quinoxalines and AZA-quinoxalines as CRTH2 receptor modulators” (Merck Sharp & Dohme Corp., priority 2010, dated 2016)
